The results in this text go back to patent US9271978B2 (Zenith Epigenetics Corp., priority 2012, dated 2016).

SMILES strings stand for the structures.

What all share (parameters): key: Active: Compounds with an IC50 value less than 30 μM were deemed to be active.; Not Active: Compounds with an IC50 value less than 30 μM were deemed to be active
The target in experiment [1] is T1, second bromodomain of Brd2 (BRD2(2)) (Homo sapiens, UniProt P25440).
T1 construct: made in house; host or cells: E. coli BL21 (DE3)
The experiment can be described thus: Inhibition of tetra-acetylated histone H4 binding to Brd2 bromodomain 2 (TR-FRET). The conditions noted are these: tetra-acetylated histone H4 peptide, active = IC50 <30 μM. How it is done:
Proteins were cloned and overexpressed with a N-terminal 6×His tag, then purified by nickel affinity followed by size exclusion chromatography. Briefly, E. coli BL21 (DE3) cells were transformed with a recombinant expression vector encoding N-terminally Nickel affinity tagged bromodomains from Brd2, Brd3, Brd4. Cell cultures were incubated at 37° C. with shaking to the appropriate density and induced overnight with IPTG. The supernatant of lysed cells was loaded onto Ni-IDA column for purification. Eluted protein is pooled, concentrated and further purified by size exclusion chromatography. Fractions representing monomeric protein were pooled, concentrated, aliquoted, and frozen at −80° C. for use in subsequent experiments.
Binding of tetra-acetylated histone H4 and BET bromodomains was confirmed by a Time Resolved Fluorescence Resonance Energy Transfer (TR-FRET) method. N-terminally His-tagged bromodomains (200 nM) and biotinylated tetra-acetylated histone H4 peptide (25-50 nM, Millipore) were incubated in the presence of Europium Cryptate-labeled streptavidin (Cisbio Cat. #610SAKLB) and XL665-labeled monoclonal anti-His antibody (Cisbio Cat. #61HISXLB) in a white 96 well microtiter plate (Greiner). For inhibition assays, serially diluted test compound was added to these reactions in a 0.2% final concentration of DMSO. Final buffer concentrations were 30 mM HEPES pH 7.4, 30 mM NaCl, 0.3 mM CHAPS, 20 mM phosphate pH 7.0, 320 mM KF, 0.08% BSA). After a 2-h incubation at room temperature, the fluorescence by FRET was measured at 665 and 620 nm by a SynergyH4 plate reader (Biotek). Illustrative results with the first bromodomain of Brd4 and the second bromodomain of Brd2 are shown below. The binding inhibitory activity was shown by a decrease in 665 nm fluorescence relative to 620 nm. IC50 values were determined from a dose response curve.
(In general: TR-FRET usually uses a lanthanide donor and a delayed reading to cut background.)

Experiment [2] deals with T2, Brd4 bromodomain 1 (BRD4(1)) (Homo sapiens, UniProt O60885).
T2 construct: Illustrative results with the first bromodomain of Brd4; made in house; host or cells: E. coli BL21 (DE3)
The experiment can be described thus: Inhibition of tetra-acetylated histone H4 binding to Brd4 bromodomain 1 (TR-FRET). The conditions noted are these: tetra-acetylated histone H4 peptide, active = IC50 <30 μM. An outline of the steps: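 IC50 values come from dose-response curves of the 665 nm to 620 nm TR-FRET signal decrease, measured after 2 h at room temperature. Reactions contained 200 nM E. coli-expressed His-tagged bromodomain, 25-50 nM biotinylated tetra-acetylated H4 peptide, Eu-streptavidin plus XL665 anti-His antibody, with 30 mM HEPES pH 7.4, 320 mM KF and 0.2% DMSO.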

In the next experiment the test system is hIL-6 mRNA. The experiment can be described thus: Inhibition of hIL-6 mRNA transcription in U937 cells. The class given is cell-based, human. To be noted: LPS stimulation, active = IC50 <30 μM. How it is done: In this example, hIL-6 mRNA in tissue culture cells was quantitated to measure the transcriptional inhibition of hIL-6 when treated with a compound of the present disclosure.
A human leukemic monocyte lymphoma cell line (U937) was plated (3.2×10^4 cells per well) in a 96-well plate in […] RPMI-1640 containing 10% FBS and penicillin/streptomycin, and differentiated into macrophages for 3 days in 60 ng/mL PMA ([…]) at 37° C. in 5% CO2 prior to the addition of the compound of interest. The cells were pretreated for 1 h with the test compound prior to stimulation with 1 ug/mL lipopolysaccharide from Escherichia coli. The cells were incubated at 37° C. for 3 h before the cells were harvested. At time of harvest, the spent media was removed from the cells and the cells were rinsed in […] PBS. Cell lysis solution (70 μL) was added the cells in each well and incubated for 5-10 min at room temperature, to allow for complete cell lysis and detachment. mRNA was then prepared using the “mRNA Catcher PLUS plate” (Invitrogen), according to the protocol supplied. After the last wash, as much wash buffer as possible was aspirated without allowing the wells to dry. Elution buffer (E3, 70 μL) was then added to each well. mRNA was then eluted by incubating the mRNA Catcher PLUS plate with Elution Buffer for 5 min at 68° C. and then immediately placing the plate on ice.
The eluted mRNA isolated was then used in a one-step quantitative real-time PCR reaction, using components of the Ultra Sense Kit together with Applied Biosystems primer-probe mixes. Real-time PCR data was analyzed, normalizing the Ct values for hIL-6 to an internal control, prior to determining the fold induction of each unknown sample, relative to the control.

Experiment [3] has as its system human AML MV-4-11 (CRL-9591) cells. The experiment can be described thus: Inhibition of cell proliferation in MV4-11 cells. The class given is cell-based. To be noted: human AML MV-4-11 cells, 72 h; active = IC50 <30 μM. The protocol:
MV4-11 cells: 96-well plates were seeded with 5×10^4 cells per well of exponentially growing human AML MV-4-11 (CRL-9591) cells and immediately treated with two-fold dilutions of test compounds, ranging from 30 μM to 0.2 μM. Triplicate wells were used for each concentration, as well as a media only and three DMSO control wells. The cells and compounds were incubated at 37° C., 5% CO2 for 72 h before adding 20 μL of the CellTiter Aqueous One Solution (Promega) to each well and incubating at 37° C., 5% CO2 for an additional 3-4 h. The absorbance was taken at 490 nm in a spectrophotometer and the percentage of proliferation relative to DMSO-treated cells was calculated after correction from the blank well. IC50 were calculated using the GraphPad Prism software.

T1 sequence (P25440 344-453 limits assumed): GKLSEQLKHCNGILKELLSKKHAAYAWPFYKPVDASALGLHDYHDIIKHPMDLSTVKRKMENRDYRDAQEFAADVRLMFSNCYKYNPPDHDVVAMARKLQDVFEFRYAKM

For `Cc1noc(C)c1-c1ccc(=O)n(C(C)c2ccccc2C(F)(F)F)c1` (stereo not drawn) [Example 38, 5-(3,5-Dimethylisoxazol-4-yl)-1-(1-(2-(trifluoromethyl)phenyl)ethyl)pyridin-2(1H)-one], in experiment [1], the “FRET activity (IC50 <30 μM) BRD2(2)” value is on record as “Active”. Further, the “FRET activity (IC50 <30 μM) BRD4(1)” value in experiment [2] is “Active”. Also, the “IL-6 activity (IC50 <30 μM)” value in the experiment on hIL-6 mRNA is given as “Active”.
For `Cc1noc(C)c1-c1ccc(=O)n(Cc2ccccc2OC(F)(F)F)n1` [Example 39, 6-(3,5-Dimethylisoxazol-4-yl)-2-(2-(trifluoromethoxy)benzyl)pyridazin-3(2H)-one], in experiment [1], the “FRET activity (IC50 <30 μM) BRD2(2)” value is listed as “Active”. For the same compound, the “FRET activity (IC50 <30 μM) BRD4(1)” value in experiment [2] is “Active”. Also, the “IL-6 activity (IC50 <30 μM)” value in the experiment with hIL-6 mRNA is on record as “Active”.
Consider `Cc1noc(C)c1-c1ccc(=O)n(Cc2cccnc2)c1` [Example 44, 5-(3,5-Dimethylisoxazol-4-yl)-1-(pyridin-3-ylmethyl)pyridin-2(1H)-one], for which the “FRET activity (IC50 <30 μM) BRD2(2)” value in experiment [1] is reported as “Active”. Further, in experiment [2], the “FRET activity (IC50 <30 μM) BRD4(1)” value was “Active”. The “IL-6 activity (IC50 <30 μM)” value with hIL-6 mRNA is listed as “Not Active”.
Regarding `Cc1cccc(Cn2cc(-c3c(C)noc3C)ccc2=O)n1` [Example 46, 5-(3,5-Dimethylisoxazol-4-yl)-1-((6-methylpyridin-2-yl)methyl)pyridin-2(1H)-one], the “FRET activity (IC50 <30 μM) BRD2(2)” value in experiment [1] is recorded as “Active”. The “FRET activity (IC50 <30 μM) BRD4(1)” value in experiment [2] is “Active”. Besides, the “IL-6 activity (IC50 <30 μM)” value in the experiment on hIL-6 mRNA is on record as “Active”.
For `CNC(=O)c1ccc(Cn2nc(-c3c(C)noc3C)ccc2=O)cc1` [Example 89, 4-((3-(3,5-Dimethylisoxazol-4-yl)-6-oxopyridazin-1(6H)-yl)methyl)-N-methylbenzamide], the “FRET activity (IC50 <30 μM) BRD2(2)” value in experiment [1] is “Active”. In addition, the “FRET activity (IC50 <30 μM) BRD4(1)” value in experiment [2] is “Active”. For the same compound, the “IL-6 activity (IC50 <30 μM)” value in the experiment on hIL-6 mRNA was “Not Active”.
Regarding `Cc1noc(C)c1-c1ccc(=O)n(Cc2cccc3cccnc23)n1` [Example 102, 6-(3,5-Dimethylisoxazol-4-yl)-2-(quinolin-8-ylmethyl)pyridazin-3(2H)-one], the “FRET activity (IC50 <30 μM) BRD2(2)” value in experiment [1] is listed as “Active”. Besides, the “FRET activity (IC50 <30 μM) BRD4(1)” value in experiment [2] is on record as “Active”. Further, in the experiment on hIL-6 mRNA, the “IL-6 activity (IC50 <30 μM)” value is reported as “Active”.
`Cc1noc(C)c1-c1ccc(=O)n(C(C)c2ccccc2Cl)c1` (stereo not drawn) [Example 103, 1-(1-(2-Chlorophenyl)ethyl)-5-(3,5-dimethylisoxazol-4-yl)pyridin-2(1H)-one]: the “FRET activity (IC50 <30 μM) BRD2(2)” value in experiment [1] is “Active”. In experiment [2], the “FRET activity (IC50 <30 μM) BRD4(1)” value was “Active”. Besides, the “IL-6 activity (IC50 <30 μM)” value in the experiment on hIL-6 mRNA is reported as “Not Active”.
For `Cc1noc(C)c1-c1ccc(=O)n(Cc2ccncc2)c1` [Example 129, 5-(3,5-Dimethylisoxazol-4-yl)-1-(pyridin-4-ylmethyl)pyridin-2(1H)-one], the “FRET activity (IC50 <30 μM) BRD2(2)” value in experiment [1] is “Active”. For the same compound, the “FRET activity (IC50 <30 μM) BRD4(1)” value in experiment [2] is listed as “Active”. Also, the “IL-6 activity (IC50 <30 μM)” value with hIL-6 mRNA is on record as “Active”.
As for `COc1ccc(Cn2cc(-c3c(C)noc3C)ccc2=O)cc1` [Example 130, 5-(3,5-Dimethylisoxazol-4-yl)-1-(4-methoxybenzyl)pyridin-2(1H)-one], in experiment [1], the “FRET activity (IC50 <30 μM) BRD2(2)” value is listed as “Active”. In experiment [2], the “FRET activity (IC50 <30 μM) BRD4(1)” value was “Active”. Also, the “IL-6 activity (IC50 <30 μM)” value in the experiment on hIL-6 mRNA is reported as “Active”.
On to `COc1ccc(Cn2cc(-c3c(C)noc3C)ccc2=O)cc1OC` [Example 131, 1-(3,4-Dimethoxybenzyl)-5-(3,5-dimethylisoxazol-4-yl)pyridin-2(1H)-one], for which the “FRET activity (IC50 <30 μM) BRD2(2)” value in experiment [1] is “Active”. The “FRET activity (IC50 <30 μM) BRD4(1)” value in experiment [2] is recorded as “Active”. Besides, the “IL-6 activity (IC50 <30 μM)” value in the experiment with hIL-6 mRNA was “Active”.
On to `Cc1noc(C)c1-c1ccc(=O)n(Cc2ccc(F)cc2F)c1` [Example 138, 1-(2,4-Difluorobenzyl)-5-(3,5-dimethylisoxazol-4-yl)pyridin-2(1H)-one], for which, in experiment [1], the “FRET activity (IC50 <30 μM) BRD2(2)” value is recorded as “Active”. For the same compound, in experiment [2], the “FRET activity (IC50 <30 μM) BRD4(1)” value is listed as “Active”. Also, the “IL-6 activity (IC50 <30 μM)” value in the experiment on hIL-6 mRNA was “Active”.
For `Cc1noc(C)c1-c1ccc(=O)n(Cc2ccc(Cl)cc2F)c1` [Example 139, 1-(4-Chloro-2-fluorobenzyl)-5-(3,5-dimethylisoxazol-4-yl)pyridin-2(1H)-one], in experiment [1], the “FRET activity (IC50 <30 μM) BRD2(2)” value is “Active”. Also, in experiment [2], the “FRET activity (IC50 <30 μM) BRD4(1)” value is “Active”. In addition, the “IL-6 activity (IC50 <30 μM)” value with hIL-6 mRNA was “Active”.
Turning to `Cc1noc(C)c1-c1ccc(=O)n(Cc2ccc(Cl)c(F)c2)c1` [Example 141, 1-(4-Chloro-3-fluorobenzyl)-5-(3,5-dimethylisoxazol-4-yl)pyridin-2(1H)-one], the “FRET activity (IC50 <30 μM) BRD2(2)” value in experiment [1] is given as “Active”. Also, in experiment [2], the “FRET activity (IC50 <30 μM) BRD4(1)” value is listed as “Active”. The “IL-6 activity (IC50 <30 μM)” value in the experiment with hIL-6 mRNA is reported as “Active”.
On to `Cc1cccc(Cn2cc(-c3c(C)noc3C)cc(N)c2=O)n1` [Example 244, 3-amino-5-(3,5-dimethylisoxazol-4-yl)-1-((6-methylpyridin-2-yl)methyl)pyridin-2(1H)-one], for which the “FRET activity (IC50 <30 μM) BRD4(1)” value in experiment [2] is given as “Active”. The “IL-6 activity (IC50 <30 μM)” value in the experiment with hIL-6 mRNA is given as “Active”.
Take `Cc1cncc(Nc2cc(-c3c(C)noc3C)cn(Cc3ccccc3)c2=O)c1` [Example 246, 1-benzyl-5-(3,5-dimethylisoxazol-4-yl)-3-((5-methylpyridin-3-yl)amino)pyridin-2(1H)-one]: the “Cell Proliferation activity (IC50 <30 μM)” value in experiment [3] is listed as “Active”. Also, in experiment [2], the “FRET activity (IC50 <30 μM) BRD4(1)” value is “Active”.
In the case of `Cc1noc(C)c1-c1cc(N)c(=O)n(Cc2ccccc2)n1` [Example 250, 4-amino-2-benzyl-6-(3,5-dimethylisoxazol-4-yl)pyridazin-3(2H)-one], in experiment [3], the “Cell Proliferation activity (IC50 <30 μM)” value was “Active”. Besides, the “FRET activity (IC50 <30 μM) BRD4(1)” value in experiment [2] is “Active”. Moreover, the “IL-6 activity (IC50 <30 μM)” value in the experiment on hIL-6 mRNA is recorded as “Active”.
As for `Cc1ccc(Cn2cc(-c3c(C)noc3C)cc(N)c2=O)cn1` [Example 258, 3-amino-5-(3,5-dimethylisoxazol-4-yl)-1-((6-methylpyridin-3-yl)methyl)pyridin-2(1H)-one], in experiment [2], the “FRET activity (IC50 <30 μM) BRD4(1)” value was “Active”. Also, in the experiment with hIL-6 mRNA, the “IL-6 activity (IC50 <30 μM)” value is “Active”.
